Structures are written as SMILES.

Data set [1] deals with pulmonary membrane adenylate cyclase. Nature of the data set: Pulmonary membrane adenylate cyclase activity in ovalbumin inhalation model. It is filed as in vivo. As to conditions: guinea pig; 2% OA aerosol 10 days; 10 mg/kg i.p. twice daily for 10 days; isoproterenol-stimulated and baseline; FIG. 5. On the procedure: (§1) Male Hartley guinea pigs weighing 350-400 g were divided into three groups, i.e., the control group, the ovalbumin (OA) group and the OA+γ-GCE group. The control group was allowed to inhale an aerosol of physiological saline for 7-8 minutes per day for 10 consecutive days. The OA group was allowed to inhale an aerosol of 2% OA in the same manner. The OA+γ-GCE group was allowed to similarly inhale an aerosol of 2% OA together with intraperitoneal administration of 10 mg/kg of γ-GCE twice daily for 10 days. […] Each of the measurements were made using 6 animals in each group, and the results were expressed as mean ± standard deviation. Evaluation of significance was performed using Dunnett's test. Cases of P being less than 0.05 were considered to be statistically significant.

The next data set has as its system xanthine oxidase. The data set is described as follows: Xanthine oxidase activities in lung tissue, bronchoalveolar lavage fluid and serum. As to conditions: guinea pig; OA inhalation 10 days + 10 mg/kg i.p. twice daily. The class given is in vivo. The method, then: as §1
Data set [2] has as its system pulmonary membrane β-receptors. Nature of the data set: Number of pulmonary membrane β-receptors in ovalbumin inhalation model. The class given is in vivo. As to conditions: guinea pig; 2% OA aerosol 10 days; 10 mg/kg i.p. twice daily for 10 days; FIG. 4. The method, then: as §1
For data set [3] the following is noted: in vivo; cited from earlier work.

On to `CCOC(=O)[C@H](CS)NC(=O)CC[C@H](N)C(=O)O` [γ-GCE, γ-L-glutamyl-L-cysteine ethyl ester], for which, in data set [1], the “effect on the reduction in pulmonary membrane adenylate cyclase activity after OA inhalation” value was “inhibited”. Further, in the data set with xanthine oxidase, the “Xanthine oxidase activity, bronchoalveolar lavage fluid” value is 9.43 ± 0.95 mU/ml; the “Xanthine oxidase activity, lung tissue” value was determined as 33.3 ± 4.02 mU/g tissue; the “Xanthine oxidase activity, serum” value was determined as 10.0 ± 1.77 mU/ml; the “xanthine oxidase values compared with the OA group, lung tissue and bronchoalveolar lavage fluid” value is “significantly lower than those of the OA group”. For the same molecule, in data set [2], the “effect on the reduction in pulmonary membrane β-receptors after OA inhalation” value is “inhibited”.

Consider `N[C@@H](CCC(=O)N[C@@H](CS)C(=O)NCC(=O)O)C(=O)O` [GSH, reduced glutathione, reference compound], for which, in data set [3], the “half-life in the blood when administered” value is “several minutes”.

(Values after patent US6127342A, “Method for preventing or treating a lung disease caused by active oxygen and free radical injury” (Teijin Limited, priority 1991, dated 2000).)
